How the values were obtained:
[1] = cited from earlier work
whole blood = assay: PT assay on sensor with SBQ-PVA immobilized substrate, heparin-spiked whole blood
Experimental: FIGS. 10 and 11 exemplify this concept as follows. A coagulation sensor was directly printed either with a large (FIG. 10) or small (FIG. 11) SBQ-PVA immobilized coagulation substrate. Subsequently, a PT coagulation activator was printed on top of the immobilized substrate matrix. These sensors were then tested with appropriate fluids to assess coagulation time. As with the results from FIGS. 5 and 6, one benefit of printing more of the immobilized substrate matrix is that the increased amount of immobilized substrate matrix led to an increase in pA. Also, when heparin is spiked into the whole blood sample, the clotting times are not as extended as they are expected to be (FIGS. 10 and 11 (response curves 181) (heparin spike) should be more similar to response curves 182 (abnormally long control fluid) clotting times, but are actually behaving more like whole blood without heparin, (response curves 183)). […] Further, applying a larger amount of the immobilizing matrix results in a greater neutralizing effect (e.g., compare the bias between whole blood and whole blood with heparin in FIGS. 10 and 11). […] In both FIGS. 10 and 11, the heparin spiked blood behaves more like unaltered whole blood than it does like an abnormally long control fluid, reflecting that there is an interferent/heparin neutralizing effect.

Compound	solubility in methanol [1]	extension of PT clotting time versus whole blood (whole blood; heparin 1 IU/mL, smaller print amount of SBQ-PVA neutralizing matrix (FIG. 11)) [%]	extension of PT clotting time versus whole blood (whole blood; heparin added to 1 IU/mL, large SBQ-PVA matrix print (FIG. 10)) [%]
O=c1oc2c(O)c(O)cc3c(=O)oc4c(O)c(O)cc1c4c23 [ellagic acid]	slightly soluble		
heparin		55	14
